Source: US12577216B2, “Triazine benzoate compound and application thereof” (SHENYANG SINOCHEM AGROCHEMICALS R&D CO., LTD., priority 2020, dated 2026)
Read-outs that look alike come from different tables or passages of the source.

How the values were obtained:
Type in all cases: in vivo
piemarker = assay: Determination of herbicidal activity, post-emergence stem and leaf spray, piemarker; conditions: for Herbicidal activity for Piemarker, control effect %: Table 4 parallel comparison; for pest or weed control at 150 g/ha: post-emergence, read-out: control effects on piemarker
Method: (§1) Seeds of broadleaf weeds (zinnia and piemarker) or grassy weeds (green bristlegrass and barnyard grass) were respectively sown in a paper cup having a diameter of 7 cm and containing nutrient soil; after sowing, the seeds were covered with 1 cm of soil; the soil was pressed and watered, and then the seeds were cultivated in a greenhouse according to a conventional method; and stems and leaves were sprayed after 2-3 leaf stage of the weeds.
(§2) After the original medicinal acetone was dissolved, the test requires to use 1‰ of Tween 80 to stand in running water to prepare the solution to be tested with a required concentration. According to the design dose of the test, spray treatment was carried out on a track-type crop sprayer (designed and produced by British Engineer Research Ltd.) (spray pressure is 1.95 kg/cm^2, spray volume is 500 L/hm^2 and track speed is 1.48 km/h). The test was repeated for three times. The test material was treated and then placed in an operation hall. The medicinal liquid was naturally dried in the shade, and then was placed in a greenhouse and managed according to the conventional method. The response of the weeds to the drug was observed and recorded. After treatment, the control effects of the test drug on the weeds were visually inspected regularly, expressed by 0-100%. “0” represents no control effect and “100%” represents complete killing.

zinnia = assay: Determination of herbicidal activity, post-emergence stem and leaf spray, zinnia; conditions: for control effects on zinnia: 150 g a.i./hm^2, after emergence, visual 0-100%; for Herbicidal activity for Zinnia, control effect %: Table 3 parallel comparison
Method: as §1, §2

green bristlegrass = assay: Determination of herbicidal activity, post-emergence stem and leaf spray, green bristlegrass; conditions: Table 5 parallel comparison
Method: as §1, §2

[1] = 150 g a.i./hm^2, after emergence, visual 0-100%
[2] = 2.34 g a.i./hm^2, after emergence
[3] = 9.375 g a.i./hm^2, after emergence
[4] = 37.5 g a.i./hm^2, after emergence

SMILES	control effects on piemarker (piemarker; [1]) [%]	control effects on zinnia (zinnia) [%]	Herbicidal activity for Piemarker, control effect % (piemarker; [2]) [%]	Herbicidal activity for Piemarker, control effect % (piemarker; [3]) [%]	Herbicidal activity for Zinnia, control effect % (zinnia; [2]) [%]	Herbicidal activity for Zinnia, control effect % (zinnia; [3]) [%]	Herbicidal activity for Green Bristlegrass, control effect % (green bristlegrass; [3]) [%]	Herbicidal activity for Green Bristlegrass, control effect % (green bristlegrass; [4]) [%]	pest or weed control at 150 g/ha (piemarker; [1]) [%]	pest or weed control at 150 g/ha (piemarker) [%]
CC(OC(=O)c1cc(-n2c(=O)n(C)c(=S)n(C)c2=O)ccc1Cl)C(=O)OCCCl (racemic) [Compound 138]	100									
CC(OC(=O)c1cc(-n2c(=O)n(C)c(=S)n(C)c2=O)c(F)cc1Cl)C(=O)OCCCl (racemic) [Compound 265]	100	100	90	100						
CC(OC(=O)c1cc(-n2c(=O)n(C)c(=S)n(C)c2=O)c(F)cc1Cl)C(=O)OCCCCl (racemic) [Compound 268]	100	100			85	100				
CC(OC(=O)c1cc(-n2c(=O)n(C)c(=S)n(C)c2=O)ccc1Cl)C(=O)OCC1CC1 (stereo not drawn) [Compound 160]	100									
Cn1c(=S)n(C)c(=O)n(-c2cc(C(=O)OCC(=O)OCCCCl)c(Cl)cc2F)c1=O [Compound 222, 2-chloro-4-fluoro-5-(3,5-dimethyl-2,6-dioxo-4-thio-1,3,5-triazine-1-yl)benzoic acid (3-chloropropoxycarbonyl) methyl ester]		100			100	100	60	90	100	
Cn1c(=S)n(C)c(=O)n(-c2cc(C(=O)OCC(=O)OCC3COC(C)(C)O3)c(Cl)cc2F)c1=O (stereo not drawn) [Compound 247]	100	100			100	100	60	90		
CC(OC(=O)c1cc(-n2c(=O)n(C)c(=S)n(C)c2=O)c(F)cc1Cl)C(=O)OCCF (stereo not drawn) [Compound 264]	100	100			90	100				
C[C@@H](OC(=O)c1cc(-n2c(=O)n(C)c(=S)n(C)c2=O)c(F)cc1Cl)C(=O)OCCCl [Compound 266]		100			85	100			100	
C[C@H](OC(=O)c1cc(-n2c(=O)n(C)c(=S)n(C)c2=O)c(F)cc1Cl)C(=O)OCCCl [Compound 267]		100	90	100	85	100			100	
C[C@@H](OC(=O)c1cc(-n2c(=O)n(C)c(=S)n(C)c2=O)c(F)cc1Cl)C(=O)OCCCCl [Compound 269]	100	100			80	95				
C[C@H](OC(=O)c1cc(-n2c(=O)n(C)c(=S)n(C)c2=O)c(F)cc1Cl)C(=O)OCCCCl [Compound 270]	100	100	85	100	90	100				
CC(OC(=O)c1cc(-n2c(=O)n(C)c(=S)n(C)c2=O)c(F)cc1Cl)C(=O)OCCCCCl (stereo not drawn) [Compound 273]	100	100	90	100						
CC(OC(=O)c1cc(-n2c(=O)n(C)c(=S)n(C)c2=O)c(F)cc1Cl)C(=O)OC/C=C/Cl (stereo not drawn) [Compound 281, (E)-2-chloro-4-fluoro-5-(3,5-dimethyl-2,6-dioxo-4-thio-1,3,5-triazine-1-yl)benzoic acid (1-(3-chloroallyloxycarbonyl))ethyl ester]		100			90	100	60	90		100
CC(OC(=O)c1cc(-n2c(=O)n(C)c(=S)n(C)c2=O)c(F)cc1Cl)C(=O)OCC=C(Cl)Cl (stereo not drawn) [Compound 283]	100	100			100	100	50	85		
CC(OC(=O)c1cc(-n2c(=O)n(C)c(=S)n(C)c2=O)c(F)cc1Cl)C(=O)OCc1ccccc1 (stereo not drawn) [Compound 289]	100	100								
CC(OC(=O)c1cc(-n2c(=O)n(C)c(=S)n(C)c2=O)c(F)cc1Cl)C(=O)OC/C=C/c1ccccc1 (stereo not drawn) [Compound 290]	100	100								
CC(OC(=O)c1cc(-n2c(=O)n(C)c(=S)n(C)c2=O)c(F)cc1Cl)C(=O)OCC1CCCC1 (stereo not drawn) [Compound 293]	100	100	85	100	90	100				
CC(OC(=O)c1cc(-n2c(=O)n(C)c(=S)n(C)c2=O)c(F)cc1Cl)C(=O)OCC1CO1 (stereo not drawn) [Compound 295]	100	100			90	100				
CC(OC(=O)c1cc(-n2c(=O)n(C)c(=S)n(C)c2=O)c(F)cc1Cl)C(=O)OCC1CCCO1 (stereo not drawn) [Compound 296]	100	100			90	100				
CC(OC(=O)c1cc(-n2c(=O)n(C)c(=S)n(C)c2=O)c(F)cc1Cl)C(=O)OCC1COC(C)(C)O1 (stereo not drawn) [Compound 297]	100	100	85	100	95	100				
CCOC(=O)C(CC)OC(=O)c1cc(-n2c(=O)n(C)c(=S)n(C)c2=O)c(F)cc1Cl (stereo not drawn) [Compound 299]		100	85	100						
CCC(OC(=O)c1cc(-n2c(=O)n(C)c(=S)n(C)c2=O)c(F)cc1Cl)C(=O)OCCF (stereo not drawn) [Compound 300, 2-chloro-4-fluoro-5-(3,5-dimethyl-2,6-dioxo-4-thio-1,3,5-triazine-1-yl)benzoic acid (1-(2-fluoroethoxycarbonyl))propyl ester]		100							100	
CCC(OC(=O)c1cc(-n2c(=O)n(C)c(=S)n(C)c2=O)c(F)cc1Cl)C(=O)OCCCl (stereo not drawn) [Compound 301]	100	100								
CCC(OC(=O)c1cc(-n2c(=O)n(C)c(=S)n(C)c2=O)c(F)cc1Cl)C(=O)OCCCCl (stereo not drawn) [Compound 302]	100	100			90	100				
CCC(OC(=O)c1cc(-n2c(=O)n(C)c(=S)n(C)c2=O)c(F)cc1Cl)C(=O)OCCCCCl (stereo not drawn) [Compound 303]	100	100			85	100				
CCC(OC(=O)c1cc(-n2c(=O)n(C)c(=S)n(C)c2=O)c(F)cc1Cl)C(=O)OCC1CC1 (stereo not drawn) [Compound 304]	100	100			80	100				
CCOC(=O)C(OC(=O)c1cc(-n2c(=O)n(C)c(=S)n(C)c2=O)c(F)cc1Cl)C(C)C (stereo not drawn) [Compound 305]	100	100								
CCOC(=O)C(C)(C)OC(=O)c1cc(-n2c(=O)n(C)c(=S)n(C)c2=O)c(F)cc1Cl [Compound 306, 2-chloro-4-fluoro-5-(3,5-dimethyl-2,6-dioxo-4-thio-1,3,5-triazine-1-yl)benzoic acid (1-methyl-1-ethoxycarbonyl)ethyl ester]									100	
